This passage reports EC50 results from patent US20250228835A1, “PYRIDINYLOXYPYRIDINES AND RELATED COMPOUNDS AND THEIR USE IN TREATING MEDICAL CONDITIONS” (Rectify Pharmaceuticals, Inc., priority 2024, published 2025).

SMILES strings stand for the structures. Where only a bound is given, the exact number is not on record here.

In assay [1] the target is T1, ABCB4 WT (Homo sapiens, UniProt P21439).
T1 construct: expressed in transfected cells
Nature of the assay: ABCB4 WT assay: HiBit protein expression. To be noted: HEK-293 cells stably expressing HiBit-tagged ABCB4 WT; 24 h treatment; top concentration 30 μM; read-out: ABCB4 WT EC50, Emax. It is filed as cell-based. An excerpt:
To assess activity against ABCB4, compounds were screened in an assay measuring protein expression, using cells transfected with cDNA encoding HiBit-tagged ABCB4 wild-type.
(§1) Described here is an assay for measuring the expression of the wild type of human ABCB4 (henceforth referred to as ABCB4 WT) and the use of this assay to measure the efficacy of compounds to increase the expression of ABCB4 WT. The assay was designed to characterize the efficacy and potency of compounds to increase the expression of ABCB4 WT by calculating an Emax and EC50 value. HEK-293 cells stably expressing ABCB4 WT (HEK-293/ABCB4 WT) were used for this assay and were maintained at 37° C. (5% CO2, humidified) in Dulbecco's Modified Eagle Medium (DMEM, Gibco product #12100) supplemented with 10% fetal bovine serum (Biosera product #FB-1058/500), 1% PenStrep (HDB product #15140-122), and 0.5 mg/mL puromycin (Gibco product #A11138-03). For the assay, the HEK-293/ABCB4 WT cells were seeded in white/opaque 384-well plates (Corning product #3570) at 10,000 cells/well in 20 μl growth medium and allowed to settle for 4 hours at 37° C. (5% CO2, humidified). Compound serial dilutions are prepared in DMSO as three hundred times (333×) the final concentration and using a dilution factor of 3 using Bravo (Agilent). After the four-hour incubation period, 60 nL of DMSO solutions are transferred to the assay plate.
(§2) Dose response curves include eleven doses with the top final concentration at 30 μM in 0.3% DMSO. Liquid handling is performed with ECHO 550 Acoustic Liquid Handler (Labcyte). After addition of compound treatment, cells are incubated for 24 hours at 37° C. (5% CO2, humidified). After the 24-hour treatment, plates are allowed to equilibrate to room temperature for 10 minutes. Using Dragonfly Automated Liquid Handler (TTP LabTech), 20 μl of HiBit lytic assay reagent (Promega, product #N3040), which is prepared according to manufacturer's instructions, is added to each well. The plates are rotated at room temperature for 2 minutes and incubated for 1 hour at 25° C. before luminescent signal is acquired using an EnVision Multimode Plate Reader (PerkinElmer).
Results are presented below in Table 5 for ABCB4 WT.
For orientation: With HiBiT, luminescence reflects the tagged protein that the partner subunit can reach.

Assay [2] concerns the target T2, ABCD2 WT (Homo sapiens, UniProt Q9UBJ2).
T2 construct: expressed in transfected cells
T2 sequence (Q9UBJ2 1-740): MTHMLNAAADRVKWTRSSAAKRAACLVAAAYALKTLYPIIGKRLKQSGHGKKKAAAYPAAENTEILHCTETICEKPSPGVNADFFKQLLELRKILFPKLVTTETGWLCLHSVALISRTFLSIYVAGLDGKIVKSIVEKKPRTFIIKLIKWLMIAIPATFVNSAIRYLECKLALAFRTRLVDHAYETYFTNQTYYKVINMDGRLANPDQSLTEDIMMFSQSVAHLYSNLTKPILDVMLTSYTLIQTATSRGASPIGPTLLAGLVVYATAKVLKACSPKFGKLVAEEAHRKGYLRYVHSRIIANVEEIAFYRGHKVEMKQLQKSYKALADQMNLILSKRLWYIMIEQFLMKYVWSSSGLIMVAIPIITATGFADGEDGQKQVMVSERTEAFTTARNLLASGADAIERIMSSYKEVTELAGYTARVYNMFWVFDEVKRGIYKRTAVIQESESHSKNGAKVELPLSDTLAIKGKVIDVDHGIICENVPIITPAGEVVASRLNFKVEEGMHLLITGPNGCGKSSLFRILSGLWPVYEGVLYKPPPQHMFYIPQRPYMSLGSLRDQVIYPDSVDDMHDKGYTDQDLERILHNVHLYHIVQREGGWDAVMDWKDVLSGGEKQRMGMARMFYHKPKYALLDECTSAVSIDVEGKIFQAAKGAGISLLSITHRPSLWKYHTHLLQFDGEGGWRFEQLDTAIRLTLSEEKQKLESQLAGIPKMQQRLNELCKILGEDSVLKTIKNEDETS
In words: D2 correction dose-response assay: ABCD2 WT HiBit protein expression. To be noted: HEK-293/ABCD2 WT cells, 24 hours treatment, HiBit luminescence; class combines EC50 and Mean MaxAct (fold); read-out: ABCD2 WT EC50, Emax. The class given is cell-based. The procedure:
Exemplary compounds were evaluated in a D2 correction dose-response assay.
as §1, with “To assess activity against ABCD2, the compounds were screened in an assay measuring protein expression, using cells transfected with cDNA encoding HiBit-tagged ABCD2 wild-type. Here we describe” for “Described here is”, “ABCD2” for “ABCB4”, “(HEK-293/ABCD2” for “(HEK-293/ABCB4”, “HEK-293/ABCD2” for “HEK-293/ABCB4”
as §2

T1 sequence (P21439 whole entry): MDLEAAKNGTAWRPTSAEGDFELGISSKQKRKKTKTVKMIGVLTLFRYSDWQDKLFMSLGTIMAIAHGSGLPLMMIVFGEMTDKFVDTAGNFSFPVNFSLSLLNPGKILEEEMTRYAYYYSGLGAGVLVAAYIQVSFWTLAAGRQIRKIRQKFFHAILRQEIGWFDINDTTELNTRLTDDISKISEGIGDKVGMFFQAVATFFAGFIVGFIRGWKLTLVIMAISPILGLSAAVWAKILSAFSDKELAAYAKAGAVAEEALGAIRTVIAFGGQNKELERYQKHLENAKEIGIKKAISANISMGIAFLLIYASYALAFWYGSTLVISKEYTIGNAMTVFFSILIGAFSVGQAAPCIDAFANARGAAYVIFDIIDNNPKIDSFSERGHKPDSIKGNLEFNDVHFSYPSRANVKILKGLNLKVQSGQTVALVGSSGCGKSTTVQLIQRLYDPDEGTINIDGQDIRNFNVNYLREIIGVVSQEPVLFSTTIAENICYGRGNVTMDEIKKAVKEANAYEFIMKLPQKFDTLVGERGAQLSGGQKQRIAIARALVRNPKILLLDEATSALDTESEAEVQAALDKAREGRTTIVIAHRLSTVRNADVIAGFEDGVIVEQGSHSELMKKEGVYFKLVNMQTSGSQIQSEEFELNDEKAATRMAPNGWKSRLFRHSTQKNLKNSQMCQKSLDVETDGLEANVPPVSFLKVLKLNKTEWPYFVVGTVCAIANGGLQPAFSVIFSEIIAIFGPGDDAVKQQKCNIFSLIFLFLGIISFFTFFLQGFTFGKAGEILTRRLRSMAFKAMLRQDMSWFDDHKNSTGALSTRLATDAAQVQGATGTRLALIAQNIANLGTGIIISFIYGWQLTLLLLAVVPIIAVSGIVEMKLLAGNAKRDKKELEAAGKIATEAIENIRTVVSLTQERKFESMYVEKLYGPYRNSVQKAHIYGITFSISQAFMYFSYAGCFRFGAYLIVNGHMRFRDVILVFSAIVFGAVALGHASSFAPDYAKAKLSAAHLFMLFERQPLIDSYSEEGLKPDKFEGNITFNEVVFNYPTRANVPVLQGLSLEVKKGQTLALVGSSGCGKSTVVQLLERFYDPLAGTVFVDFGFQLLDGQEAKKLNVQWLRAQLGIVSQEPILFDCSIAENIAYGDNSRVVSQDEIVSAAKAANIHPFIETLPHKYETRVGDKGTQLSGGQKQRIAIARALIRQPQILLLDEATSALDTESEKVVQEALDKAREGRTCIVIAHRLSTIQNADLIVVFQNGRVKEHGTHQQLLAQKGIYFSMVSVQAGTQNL

Turning to `Cc1nc(C(F)(F)F)nc(C2CC2)c1Oc1nc(-c2cncc(Cl)c2)ccc1N(C)S(C)(=O)=O` [Compound I-149], the EC50 in assay [1] was no less than 25 µM; in assay [2], greater than 25 µM.

In the case of `Cc1nc(C2CC2)nc(C2CC2)c1Oc1nc(-c2cncc(C#N)c2)ccc1NS(C)(=O)=O` [Compound I-150], the EC50 in assay [1] and in assay [2] was less than 1 µM in each case.

With `Cc1nc(C(F)(F)F)nc(C2CC2)c1Oc1nc(-c2cncc(Cl)c2)ccc1NS(C)(=O)=O` [Compound I-151], the concentration giving a half-maximal response (EC50) in assay [1] and in assay [2] was less than 1 µM throughout.

For `CCS(=O)(=O)Nc1ccc(-c2cncc(C#N)c2)nc1Oc1c(C)cc(C(F)(F)F)nc1C1CC1` [Compound I-152], the EC50 in assay [1] and in assay [2] was less than 1 µM in each case.

Regarding `Cc1cc(C(F)(F)F)nc(C2CC2)c1Oc1nc(-c2cncc(Cl)c2)ccc1N(C)S(C)(=O)=O` [Compound I-153], the EC50 is no less than 25 µM in assay [1] and 1 to 10 µM in assay [2].

Regarding `Cc1nc(C(F)(F)F)cc(C2CC2)c1Oc1nc(-c2cncc(C#N)c2)ccc1N(C)S(C)(=O)=O` [Compound I-154], the EC50 in assay [1] was less than 25 µM; in assay [2] it was greater than 25 µM.

For `Cc1nc(C(F)(F)F)cc(C2CC2)c1Oc1nc(-c2cncc(C#N)c2)ccc1NS(C)(=O)=O` [Compound I-155], the EC50 in assay [1] was less than 1 µM; in assay [2], greater than 25 µM.

Consider `Cc1cc(C(F)(F)F)nc(C2CC2)c1Oc1nc(-c2cncc(C#N)c2)ccc1N(C)S(C)(=O)=O` [Compound I-156], for which the half-maximal effective concentration (EC50) in assay [1] was no less than 25 µM; in assay [2], less than 1 µM.

`Cc1nc(C)c(Oc2nc(-c3cncc(C#N)c3)ccc2N(C)S(C)(=O)=O)c(C2CC2)n1` [Compound I-157]: the EC50 in assay [1] was less than 25 µM; in assay [2], 10 to 25 µM.

Consider `Cc1cc(C(F)(F)F)nc(C2CC2)c1Oc1nc(-c2cncc(Cl)c2)ccc1NS(C)(=O)=O` [Compound I-158], for which the EC50 in assay [1] and in assay [2] was less than 1 µM throughout.

On to `Cc1nc(N2CC(C#N)C2)nc(C)c1Oc1nc(-c2cncc(C#N)c2)ccc1NS(C)(=O)=O` [Compound I-159], for which the EC50 in assay [1] and in assay [2] was less than 1 µM throughout.

For `Cc1nc(N2CC3(COC3)C2)nc(C)c1Oc1nc(-c2cncc(C#N)c2)ccc1NS(C)(=O)=O` [Compound I-160], the EC50 was less than 25 µM in assay [1] and greater than 25 µM in assay [2].

For `Cc1cc(C2CC2)nc(C2CC2)c1Oc1nc(-c2cncc(C#N)c2)ccc1NS(C)(=O)=O` [Compound I-161], the figures for the EC50 in assay [1] and in assay [2] were less than 1 µM and greater than 25 µM, respectively.

Turning to `Cc1nc(C2CC2)cc(C2CC2)c1Oc1nc(-c2cncc(C#N)c2)ccc1NS(C)(=O)=O` [Compound I-162], the figures for the EC50 in assay [1] and in assay [2] were no less than 25 µM and greater than 25 µM, respectively.

As to `Cc1cc(C(F)(F)F)nc(C2CC2)c1Oc1nc(-c2cncc(C#N)c2)ccc1NS(C)(=O)=O` [Compound I-163], the EC50 in assay [1] and in assay [2] was less than 1 µM throughout.

For `Cc1nc(C)c(Oc2nc(-c3cncc(Cl)c3)ccc2NS(C)(=O)=O)c(C2CC2)n1` [Compound I-164], the concentration for a half-maximal effect (EC50) in assay [1] and in assay [2] was 1 to 10 µM in each case.

For `Cc1cc(C(F)(F)F)nc(C2CC2)c1Oc1nc(-c2cncc(C#N)c2)ccc1N=S(C)(C)=O` [Compound I-286], the results for the EC50 in assay [1] and in assay [2] were no less than 25 µM and less than 1 µM, respectively.

On to `Cc1cc(C(F)(F)F)nc(C2CC2)c1Oc1nc(-c2cncc(C#N)c2)ccc1S(=N)(=O)C1CC1` (stereo not drawn) [Compound I-287], for which the values for the EC50 in assay [1] and in assay [2] were less than 25 µM and greater than 25 µM, respectively.

Regarding `Cc1cc(C(F)F)nc(C2CC2)c1Oc1nc(-c2cncc(C#N)c2)ccc1S(=O)(=O)NC1CC1` [Compound I-288], the EC50 in assay [1] and in assay [2] was 1 to 10 µM in each case.

Consider `CNS(=O)(=O)c1ccc(-c2cncc(C#N)c2)nc1Oc1c(C)cc(C(F)F)nc1C1CC1` [Compound I-289], for which the EC50 lay in the range of 10 to 25 µM in assay [1] and 1 to 10 µM in assay [2].

Take `Cc1cc(C(F)(F)F)nc(C2CC2)c1Oc1nc(-c2cncc(C#N)c2)ccc1S(=O)(=O)N1CCOCC1` [Compound I-290]: the EC50 is no less than 25 µM in assay [1] and greater than 25 µM in assay [2].

The EC50 is the concentration that produces a half-maximal response.
